Laboratory results: patent US20170073337A1, “DIHYDROTHIAZINE AND DIHYDROOXAZINE DERIVATIVES HAVING BACE1 INHIBITORY ACTIVITY” (Shionogi & Co., Ltd., priority 2014, published 2017)
Converted amounts (≈) assume the structure as drawn. Read-outs that look alike come from different tables or passages of the source.

Columns and labels:
[1] = biological target: T1, CYP2C19 (Homo sapiens, UniProt P33261); assay: CYP inhibition test (CYP2C19); type: in vitro ADME; settings: pooled human liver microsomes; mephenytoin 4′-hydroxylation
T1 construct: The commercially available pooled human liver microsomes are used as an enzyme resource; from tissue; host or cells: pooled human liver microsomes
Source text: (§1) The CYP inhibition test is a test to assess the inhibitory effect of a compound of the present invention towards typical substrate metabolism reactions on CYP enzymes in human liver microsomes. The marker reactions on human main five CYP enzymes (CYP1A2, 2C9, 2C19, 2D6, and 3A4) are used as follows: 7-ethoxyresorufin O-deethylation (CYP1A2), tolbutamide methyl-hydroxylation (CYP2C9), mephenytoin 4′-hydroxylation (CYP2C19), dextromethorphan O-demethylation (CYP2D6), and terfenadine hydroxylation (CYP3A4). The commercially available pooled human liver microsomes are used as an enzyme resource.
(§2) The reaction conditions were as follows: substrate, 0.5 μmol/L ethoxyresorufin (CYP1A2), 100 μmol/L tolbutamide (CYP2C9), 50 μmol/L, S-mephenytoin (CYP2C19), 5 μmol/L dextromethorphan (CYP2D6), 1 μmol/L terfenadine (CYP3A4): reaction time, 15 minutes: reaction temperature, 37° C.; enzyme, pooled human liver microsomes 0.2 mg protein/mL; concentrations of the compound of the present invention, 1, 5, 10, 20 μmol/L (four points).
(§3) Five kinds of substrates, human liver microsomes, and a compound solution of the present invention in […] Hepes buffer were added to a 96-well plate at the composition as described above as a reaction solution. NADPH as a cofactor was added to this 96-well plate in order to initiate metabolism reactions. After the incubation at 37° C.for […], a methanol/acetonitrile=1/1 (v/v) solution was added to stop the reaction. After the centrifugation at 3000 rpm for 15 minutes, resorufin (CYP1A2 metabolite) in the supernatant was quantified by a fluorescent plate reader, and hydroxytolbutamide (CYP2C9 metabolite), 4′-hydroxymephenytoin (CYP2C19 metabolite), dextrorphan (CYP2D6 metabolite), and terfenadine alcohol metabolite (CYP3A4 metabolite) in the supernatant were quantified by LC/MS/MS.
(§4) The sample adding DMSO to a reaction system instead of compound of the present invention solution was adopted as a control (100%) because DMSO was used as a solvent to dissolve a compound of the present invention. Remaining activity (%) was calculated at each concentration of a compound of the present invention, and IC50 value was calculated by reverse presumption by a logistic model using a concentration and an inhibition rate.

[2] = biological target: T2, CYP3A4 (Homo sapiens, UniProt P08684); assay: CYP inhibition test (CYP3A4); type: in vitro ADME; settings: pooled human liver microsomes; terfenadine hydroxylation
T2 construct: The commercially available pooled human liver microsomes are used as an enzyme resource; from tissue; host or cells: pooled human liver microsomes
Source text: as §1, §2, §3, §4

[3] = biological target: T3, human ether-a-go-go related gene (hERG) channel (Homo sapiens, UniProt Q12809); assay: hERG test; type: cell-based; settings: % inhibition of IKr tail peak current at 3 uM; CHO cells expressing hERG
T3 construct: expressed in transfected cells; host or cells: CHO cells
Source text: For the purpose of assessing risk of an electrocardiogram QT interval prolongation, effects on delayed rectifier K+ current (IKr), which plays an important role in the ventricular repolarization process of the compound of the present invention, was studied using CHO cells expressing human ether-a-go-go related gene (hERG) channel.
A cell was retained at a membrane potential of […] by whole cell patch clamp method using an automated patch clamp system (QPatch:Sophion Bioscience A/S). After application of leak potential at −50 mV, IKr induced by depolarization pulse stimulation at +20 mV for 2 seconds and, further, repolarization pulse stimulation at −50 mV for 2 seconds was recorded.

[4] = biological target: T4, CYP1A2 (Homo sapiens, UniProt P05177); assay: CYP inhibition test (CYP1A2); type: in vitro ADME; settings: pooled human liver microsomes; 7-ethoxyresorufin O-deethylation
T4 construct: The commercially available pooled human liver microsomes are used as an enzyme resource; from tissue; host or cells: pooled human liver microsomes
T4 sequence (P05177 1-516): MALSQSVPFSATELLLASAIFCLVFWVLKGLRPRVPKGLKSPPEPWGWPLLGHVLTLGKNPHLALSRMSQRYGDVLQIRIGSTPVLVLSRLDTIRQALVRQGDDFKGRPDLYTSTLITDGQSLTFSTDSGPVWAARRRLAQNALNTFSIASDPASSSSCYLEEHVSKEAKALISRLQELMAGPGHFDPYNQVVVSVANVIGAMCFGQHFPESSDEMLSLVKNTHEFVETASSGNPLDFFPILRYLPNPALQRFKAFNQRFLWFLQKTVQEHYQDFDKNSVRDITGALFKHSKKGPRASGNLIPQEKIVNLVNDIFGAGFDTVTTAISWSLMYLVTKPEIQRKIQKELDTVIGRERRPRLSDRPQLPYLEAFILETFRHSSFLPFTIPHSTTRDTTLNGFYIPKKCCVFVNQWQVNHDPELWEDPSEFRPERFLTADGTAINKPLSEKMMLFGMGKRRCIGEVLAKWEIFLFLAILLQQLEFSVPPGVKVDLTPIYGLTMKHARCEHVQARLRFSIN
Source text: as §1, §2, §3, §4

[5] = biological target: T5, CYP2C9 (Homo sapiens, UniProt P11712); assay: CYP inhibition test (CYP2C9); type: in vitro ADME; settings: pooled human liver microsomes; tolbutamide methyl-hydroxylation
T5 construct: The commercially available pooled human liver microsomes are used as an enzyme resource; from tissue; host or cells: pooled human liver microsomes
Source text: as §1, §2, §3, §4

[6] = test system: Aβ production in neuroblastoma SH-SY5Y cells (SH/APPwt); assay: β-amyloid (Aβ) production inhibitory effect in cell: 384-well; type: cell-based; settings: Homo sapiens, Assay format 384-well
Description: Neuroblastoma SH-SY5Y cells (SH/APPwt) with human wild-type β-APT excessively expressed therein were prepared at 4×10^5 cells/mL, and 50 μl portions thereof were inoculated into each well of a 384-well culture plate (Corning) added 0.5 μl of the test compound of the present invention (DMSO solution). The final DMSO concentration was 1%, and the amount of the cell culture was 50 μl. After the incubation was performed for 21 hours from the cell seeding, 5 μl of the culture supernatant was collected from each fraction. The amount of the Aβ in each fraction was measured.
The Aβ amount was measured as follows. 5 μl of a homogeneous time resolved fluoresrenee (HTRF) measurement reagent (Amyloid β1-40 peptide; CIS bio international) and 5 μl of the culture supernatant were put into a 384′well plate (a black plate: Corning) and mixed with each other, and then left standing overnight at 4° C. while the light was shielded. Then, the fluorescence intensity (620 nm and 665 nm) was measured with EnViston (Perkin Elmer life sciences).

[7] = Solubility test; type: physicochemical; settings: for solubility kinetic at 1 h: kinetic from dmso stock; for solubility kinetic at 16 h: solubility in JP 2nd fluid B, 1% DMSO, *2: shaken for 1 hour at room temperature
Description: A 10 mmol/L solution of the compound was prepared with DMSO, and 2 μL of the compound of the present invention solution was added, respectively, to 198 μL of JP 1st fluid (water was added to 2.0 g of sodium chloride and 7.0 ml, of hydrochloric acid to reach 1000 mL) and JP 2nd fluid (See Table 4). The mixture was left standing for 16 hours at 25° C. or shaken for 1 hour at ruom temperature, and the mixture was vacuum-filtered. The […] was ten or one hundred-fold diluted with metbanol/water=1/1 (v/v) or MeCN/MeOH/H2O(=1/1/2), and the compound concent ration in the filtrate was measured with LC/MS or solid phase extraction (SPE)/MS by the absolute calibration method.

[8] = biological target: T6, Recombinant human BACE1 (Homo sapiens, UniProt P56817); assay: Assay of BACE1 inhibitory activity: 384-well; type: biochemical; settings: Assay format 384-well
T6 construct: purchased R&D Systems
Description: 5 μL of substrate peptide solution (Biotin-XSEVNLDAEFRHDSGC-Eu: X=ε-amino-n-capronic acid, Eu=Europium eryplate) was added to each well of 384-well plate (a black plate: Corning), and after addition of 0.1 μl of the compound of the present invention (DMSO solution) and 5 μl of Recombinant human BACE1 (R&D Systems), the reaction mixture was incubated at 25° C. for 2 hours. The substrate peptide was synthesized by reacting Cryptate TBPCOOH mono SMP (CIS bio international) with Biotin-XSEVNLDAEFRHDSGC (Peptide Institute, Inc.).
After the incubation for reaction, 10 μl of 8.0 μg/ml Streptavidin-XL665 (CIS bio International) dissolved in phosphate buffer (150 mmol/L K2HPO4-KH2PO4, pH 7.0, 0.008% Triton X-100, 0.8 mol/L KF) was added to each well and left stand at 25° C. for 30 minutes.

[9] = Metabolic stability test; type: in vitro ADME; settings: human liver microsomes, 37° C., 30 minutes, NADPH
Description: Using a commercially available pooled human liver microsomes, a compound of the present invention was reacted for a constant time, a remaining rate was calculated by comparing a reacted sample and an unreacted sample, thereby, a degree of metabolism in liver was assessed.
A reaction was performed (oxidative reaction) at 37° C. for 0 minute or 30 minutes in the presence of 1 mmol/L NADPH in 0.2 mL of a buffer (60 mmol/L Tris-HCl pH 7.4, 150 mmol/L potassium chloride, 10 mmol/L magnesium chloride) containing 0.5 mg protein/mL of human liver microsomes. After the reaction, 50 μL of the reaction solution was added to 100 μL of a methanol/acetonltrile=1/1 (v/v), mixed and centrifuged at 3000 rpm for 15 minutes. The compound of the present invention in the supernatant was quantified by LC/MS/MS or solid phase extraction (SPE)/MS, and a remaining amount of the compound of the present invention after the reaction area calculated, letting a compound amount at 0 minute reaction time to be 100%.

[10] = JP 1st fluid, pH 1.2, simulated gastric fluid, read-out: JP1
[11] = JP 2nd fluid B, pH 6.8, aqueous buffer, read-out: JP2_μM

T2 sequence (P08684 whole entry): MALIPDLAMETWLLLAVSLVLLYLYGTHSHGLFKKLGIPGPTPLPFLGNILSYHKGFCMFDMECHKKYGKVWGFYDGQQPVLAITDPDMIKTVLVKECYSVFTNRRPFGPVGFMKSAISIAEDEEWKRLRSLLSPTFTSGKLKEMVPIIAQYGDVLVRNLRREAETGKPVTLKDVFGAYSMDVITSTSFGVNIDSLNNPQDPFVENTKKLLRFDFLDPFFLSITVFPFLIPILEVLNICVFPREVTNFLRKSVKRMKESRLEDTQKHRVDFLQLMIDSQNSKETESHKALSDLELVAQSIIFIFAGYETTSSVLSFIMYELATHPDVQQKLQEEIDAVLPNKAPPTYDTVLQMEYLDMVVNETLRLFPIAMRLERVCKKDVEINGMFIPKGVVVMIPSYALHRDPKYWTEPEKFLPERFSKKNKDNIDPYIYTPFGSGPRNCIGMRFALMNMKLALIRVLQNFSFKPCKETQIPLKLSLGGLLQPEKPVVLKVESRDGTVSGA
T6 sequence (P56817 46-501): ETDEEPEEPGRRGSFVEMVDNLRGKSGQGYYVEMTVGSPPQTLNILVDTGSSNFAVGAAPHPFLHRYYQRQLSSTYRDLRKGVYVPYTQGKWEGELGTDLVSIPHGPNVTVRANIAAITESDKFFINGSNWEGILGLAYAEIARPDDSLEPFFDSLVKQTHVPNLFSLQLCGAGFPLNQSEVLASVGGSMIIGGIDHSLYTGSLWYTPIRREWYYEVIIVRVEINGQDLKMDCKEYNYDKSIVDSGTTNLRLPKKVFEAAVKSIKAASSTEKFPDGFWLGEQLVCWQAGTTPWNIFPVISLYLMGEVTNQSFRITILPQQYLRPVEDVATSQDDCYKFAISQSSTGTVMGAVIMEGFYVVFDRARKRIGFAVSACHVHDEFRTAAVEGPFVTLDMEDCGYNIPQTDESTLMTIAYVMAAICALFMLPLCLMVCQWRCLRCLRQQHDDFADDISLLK
T1 sequence (P33261 whole entry): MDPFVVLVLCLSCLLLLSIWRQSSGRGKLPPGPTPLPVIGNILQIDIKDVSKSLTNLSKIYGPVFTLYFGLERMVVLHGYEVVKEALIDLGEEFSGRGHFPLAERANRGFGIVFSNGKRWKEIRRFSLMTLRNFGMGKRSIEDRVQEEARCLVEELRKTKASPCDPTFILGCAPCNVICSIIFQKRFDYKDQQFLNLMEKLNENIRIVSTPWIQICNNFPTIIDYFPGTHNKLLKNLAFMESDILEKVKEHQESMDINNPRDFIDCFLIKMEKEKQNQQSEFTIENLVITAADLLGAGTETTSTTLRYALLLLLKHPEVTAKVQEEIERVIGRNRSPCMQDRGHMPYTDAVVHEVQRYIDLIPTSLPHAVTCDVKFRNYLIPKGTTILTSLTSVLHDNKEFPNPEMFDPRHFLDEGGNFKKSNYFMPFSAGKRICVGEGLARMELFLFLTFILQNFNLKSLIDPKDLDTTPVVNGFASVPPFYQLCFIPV
T3 sequence (Q12809 whole entry): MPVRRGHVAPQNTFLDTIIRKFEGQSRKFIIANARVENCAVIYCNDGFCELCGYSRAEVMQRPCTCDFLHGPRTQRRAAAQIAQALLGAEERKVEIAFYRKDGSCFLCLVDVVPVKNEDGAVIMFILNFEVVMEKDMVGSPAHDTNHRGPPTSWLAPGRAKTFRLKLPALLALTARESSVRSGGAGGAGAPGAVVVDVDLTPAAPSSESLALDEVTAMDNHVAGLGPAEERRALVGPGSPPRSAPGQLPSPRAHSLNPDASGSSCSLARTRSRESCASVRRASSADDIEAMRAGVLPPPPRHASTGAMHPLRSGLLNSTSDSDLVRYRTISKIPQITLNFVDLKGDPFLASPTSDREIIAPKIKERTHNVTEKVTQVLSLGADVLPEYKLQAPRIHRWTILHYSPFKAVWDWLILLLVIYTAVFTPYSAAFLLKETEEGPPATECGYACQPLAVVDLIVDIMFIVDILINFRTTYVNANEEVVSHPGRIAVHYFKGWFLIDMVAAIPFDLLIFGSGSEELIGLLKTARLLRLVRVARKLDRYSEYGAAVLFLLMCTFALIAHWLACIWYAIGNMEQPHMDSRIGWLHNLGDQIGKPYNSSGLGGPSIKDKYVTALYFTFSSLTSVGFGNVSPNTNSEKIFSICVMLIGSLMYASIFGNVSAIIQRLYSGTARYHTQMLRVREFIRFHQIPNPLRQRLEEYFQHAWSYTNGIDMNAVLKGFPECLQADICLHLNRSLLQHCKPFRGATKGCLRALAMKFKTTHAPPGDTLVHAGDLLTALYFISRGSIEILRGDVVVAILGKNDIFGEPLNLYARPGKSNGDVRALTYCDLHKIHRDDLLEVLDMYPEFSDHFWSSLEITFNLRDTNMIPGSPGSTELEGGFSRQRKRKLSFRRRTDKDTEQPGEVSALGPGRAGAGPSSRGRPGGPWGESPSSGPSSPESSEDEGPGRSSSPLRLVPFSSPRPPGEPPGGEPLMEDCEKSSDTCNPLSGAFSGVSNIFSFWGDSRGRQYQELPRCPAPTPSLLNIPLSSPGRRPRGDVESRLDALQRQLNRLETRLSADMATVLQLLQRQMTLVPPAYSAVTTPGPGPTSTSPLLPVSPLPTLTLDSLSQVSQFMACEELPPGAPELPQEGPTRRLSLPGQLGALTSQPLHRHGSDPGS
T5 sequence (P11712 whole entry): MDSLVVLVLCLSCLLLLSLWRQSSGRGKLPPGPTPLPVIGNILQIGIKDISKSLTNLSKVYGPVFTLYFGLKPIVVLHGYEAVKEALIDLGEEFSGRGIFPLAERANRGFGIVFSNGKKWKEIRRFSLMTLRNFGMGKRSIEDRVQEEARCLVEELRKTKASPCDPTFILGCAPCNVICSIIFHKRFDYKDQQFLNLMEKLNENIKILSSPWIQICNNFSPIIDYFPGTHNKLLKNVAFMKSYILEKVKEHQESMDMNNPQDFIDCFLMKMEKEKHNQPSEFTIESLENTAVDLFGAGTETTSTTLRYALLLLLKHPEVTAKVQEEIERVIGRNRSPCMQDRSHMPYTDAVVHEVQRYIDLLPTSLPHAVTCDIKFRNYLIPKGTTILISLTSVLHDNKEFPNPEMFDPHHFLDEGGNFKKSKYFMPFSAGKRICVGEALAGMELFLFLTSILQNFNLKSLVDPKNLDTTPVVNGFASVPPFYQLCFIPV

Structure (SMILES) | IC50 [1] | IC50 [2] | hERG_3 uM_% [3] | IC50 [4] | IC50 [5] | IC50 [6] | solubility kinetic at 1 h [7, 10] | solubility kinetic at 16 h ([7]; read-out: JP2_μM) | IC50 [8] | remaining % [9] | solubility kinetic at 1 h [7, 11]
C[C@]1(c2cc(NC(=O)c3cnc(OCF)cn3)ccc2F)N=C(N)SCC12CC(F)(F)C2 [Compound I-56] | ≥ 20 µM | ≥ 10 µM | 37.6% | ≥ 20 µM | ≥ 20 µM | 0.00053 µM | > 50 µM | >50 µM | – | – | –
C[C@]1(c2cc(NC(=O)c3ccc(F)cn3)ccc2F)N=C(N)SCC12CC(F)(F)C2 [Compound I-61] | ≥ 20 µM | ≥ 10 µM | – | ≥ 20 µM | ≥ 20 µM | 0.0013 µM | > 50 µM | >50 µM | 0.0154 µM | 71.5% | –
CC[C@H]1SC(N)=N[C@](C)(c2cc(NC(=O)c3ncc(C#N)cc3C)ccc2F)[C@H]1F [Compound I-68] | ≥ 20 µM | ≥ 10 µM | – | ≥ 20 µM | – | 0.00041 µM | > 50 µM | – | 0.0116 µM | – | 9.1 µM (≈ 3.91 µg/mL)
CC[C@H]1SC(N)=N[C@](C)(c2cc(NC(=O)c3ccc(C#N)cn3)ccc2F)[C@H]1F [Compound I-69] | – | ≥ 10 µM | – | – | – | 0.00042 µM | > 50 µM | >50 µM | 0.00924 µM | 77.6% | –
CCOc1cnc(C(=O)Nc2ccc(F)c([C@@]3(C)N=C(N)S[C@H](C)[C@@H]3F)c2)cn1 [Compound I-84] | ≥ 20 µM | – | 28.8% | ≥ 20 µM | – | 0.0023 µM | > 50 µM | – | 0.0129 µM | – | 49.4 µM (≈ 20.8 µg/mL)
COC[C@H]1SC(N)=N[C@](C)(c2cc(NC(=O)c3ccc(C#N)cn3)ccc2F)[C@H]1F [Compound I-92] | ≥ 20 µM | ≥ 20 µM | – | ≥ 20 µM | – | 0.001 µM | > 50 µM | >50 µM | 0.00827 µM | 81% | –
COc1ccc(C(=O)Nc2ccc(F)c([C@@]3(C)N=C(N)O[C@H](C(F)(F)C4CC4)[C@@H]3F)c2)nc1 [Compound I-93] | ≥ 20 µM | – | – | ≥ 20 µM | – | 0.028 µM | > 50 µM | – | 0.0445 µM | 82.2% | 6.1 µM (≈ 2.85 µg/mL)
C[C@]1(c2cc(NC(=O)c3cnc(OCF)cn3)ccc2F)N=C(N)O[C@H](C2(F)CC2)[C@@H]1F [Compound I-94] | – | – | – | – | – | 0.0035 µM | – | – | – | – | –
COc1cnc(C(=O)Nc2ccc(F)c([C@@]3(C)N=C(N)O[C@H](C4(F)CC4)[C@@H]3F)c2)cn1 [Compound I-97] | ≥ 20 µM | ≥ 20 µM | – | ≥ 20 µM | – | 0.0025 µM | > 50 µM | >50.0 µM | 0.0105 µM | – | –
COc1ccc(C(=O)Nc2ccc(F)c([C@@]3(C)N=C(N)O[C@H](C4(F)CC4)[C@@H]3F)c2)nc1 [Compound I-100] | ≥ 20 µM | ≥ 20 µM | – | ≥ 20 µM | – | 0.013 µM | > 50 µM | >50.0 µM | 0.026 µM | 60.2% | –
[2H]C([2H])([2H])Oc1cnc(C(=O)Nc2ccc(F)c([C@@]3(C)N=C(N)S[C@H](C)[C@@H]3F)c2)cn1 [Compound I-111] | ≥ 20 µM | ≥ 20 µM | – | ≥ 20 µM | – | 0.00097 µM | 48.4 µM (≈ 19.9 µg/mL) | – | 0.0103 µM | 64.9% | > 50 µM
